Experimental data reported in patent publication US20240180845A1, “THIN-SHELL POLYMERIC NANOPARTICLES AND USES THEREOF” (Academia Sinica, priority 2016, published 2024).

Assays:
[1] = Encapsulation efficiency and loading of cargoes in thin-shell hollow PLGA nanoparticles; assay type: physicochemical
[2] = design: species or system mice; conditions: mouse, in vivo
Description: FIG. […], is a depiction of STING agonist-loaded nanoparticles on enhancing lymphatic cytokines while minimizing systemic cytokines. • A: Induction of TNF-α in a mouse dendritic cell line following incubation with cd-GMP nanoparticles and free cd-GMP. • B: Induction of IL-6 in the same mouse dendritic cell line. • C: Induction of IFN-β in the mouse dendritic cell line. • D: Activation of JAWSII upon incubation with equivalent doses of cd-GMP in free molecule form and in nanoparticle formulation. • E: Quantification of lymph node IFN-β 48 hours following footpad injection of free cd-GMP or nanoparticle cd-GMP. • F: Level of systemic TNF-α following footpad injection of free cd-GMP and nanoparticle cd-GMP. Immune potentiation by the cd-GMP nanoparticles was further compared to free cd-GMP in vivo in mice. 48 hours following footpad injections, the draining popliteal lymph nodes were collected for IFN-β quantification. […] In addition, the systemic level of TNF-α, an indicator of reactogenicity, was also monitored following the footpad administration of free cd-GMP and cd-GMP nanoparticles.

encapsulation efficiency ([1]; cargo in thin-shell hollow PLGA nanoparticles, listed as cd-GMP): about 40% | STING agonist molecules per nanoparticle ([1]; hollow particles 100 to 200 nm in diameter): approximately 2,000 | serum level of TNF-α, indicator of reactogenicity [2]: elevated level
SMILES: Nc1nc2c(ncn2[C@@H]2O[C@@H]3COP(=O)(O)O[C@H]4[C@@H](O)[C@H](n5cnc6c(=O)[nH]c(N)nc65)O[C@@H]4COP(=O)(O)O[C@H]3[C@H]2O)c(=O)[nH]1 [cyclic di-GMP]
